Laboratory results from ChEMBL document CHEMBL1201862, “PubChem BioAssay data set” (2004).
Calls of active or inactive are those of the source.

How the values were obtained:
[1] = system: Streptococcus sp. 'group A'; experiment: Streptococcus pyogenes SK(-)GAS viability under kanamycin – luminescence, BacTiterGlo, confirmation, counter-screen for streptokinase expression inhibitor project, dose response (AID 1900); format: functional, organism-based
Streptokinase A = molecular target: T1, Streptokinase A (Streptococcus pyogenes serotype M1, UniProt P10520); experiment: viability-normalized secreted streptokinase activity reduction – plasminogen activation absorbance, OD405, dose response (AID 1914); format: functional, Streptococcus pyogenes M1 GAS;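 further: secreted streptokinase activity via plasminogen activation per viability signal from cell pellet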
T1 sequence (P10520 whole entry): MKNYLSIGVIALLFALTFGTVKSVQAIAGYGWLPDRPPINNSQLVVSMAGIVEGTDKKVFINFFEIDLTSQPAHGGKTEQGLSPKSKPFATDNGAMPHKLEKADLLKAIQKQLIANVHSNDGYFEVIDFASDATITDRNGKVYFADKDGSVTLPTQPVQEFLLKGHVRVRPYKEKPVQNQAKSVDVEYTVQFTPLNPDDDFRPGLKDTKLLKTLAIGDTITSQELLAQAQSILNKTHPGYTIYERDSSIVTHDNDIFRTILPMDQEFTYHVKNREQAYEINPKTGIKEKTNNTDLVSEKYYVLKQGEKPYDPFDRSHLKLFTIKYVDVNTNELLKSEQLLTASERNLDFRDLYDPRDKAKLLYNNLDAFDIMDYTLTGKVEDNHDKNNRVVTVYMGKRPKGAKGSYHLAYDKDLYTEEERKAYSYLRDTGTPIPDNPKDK

Streptococcus = experiment: GAS UMAA2166 growth inhibition – luminescence, BacTiterGlo, counter-screen for streptokinase expression inhibitor project, dose response (AID 1915); format: functional, organism-based;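 further: potency for reduction of bacterial viability or growth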
[2] = potency of ADAM10 substrate cleavage blockers – biochemical, QFRET, dose response (AID 743254);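 further: ADAM10 enzyme with the DM2 quenched FRET peptide as substrate; EDANS fluorescence gain as the protease cuts the substrate; inhibitor potency against ADAM10 proteolytic activity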
[3] = molecular target: Disintegrin and metalloproteinase domain-containing protein 17 (Homo sapiens, UniProt P78536); experiment: inhibition of ADAM17 substrate cleavage – biochemical, quenched FRET substrate, counter-screen for ADAM10 exosite inhibitor project, dose response (AID 743253)
[4] = molecular target: 26S proteasome non-ATPase regulatory subunit 14 (Homo sapiens, UniProt O00487); experiment: inhibition of proteasome subunit RPN11 – biochemical, fluorescence polarization, uHTS hits, confirmation (AID 602368); format: functional
[5] = molecular target: 72 kDa type IV collagenase (Homo sapiens, UniProt P08253); experiment: Dose Response validation of uHTS RPN11 inhibitor hits using a MMP-2 Fluorescence assay.; format: functional
Prothrombin = Prothrombin (Bos taurus, UniProt P00735); experiment: thrombin protease inhibitors – biochemical, fluorescence polarization, uHTS hits, dose response (AID 602369); format: functional
[6] = Luminescence Cell-Based Dose Confirmation HTS to Identify Activators of 5'UTR Stem-Loop Driven Alpha-Synuclein mRNA Translation in H4 Neuroglioblastoma Cells. [Related pubchem assays: 1829 (Project Summary), 1814 (Primary HTS)]; format: functional
[7] = Luminescence Cell-Based Dose Response HTS to Identify Activators of Luciferase Translation or Activity in H4 […] Cells. [Related pubchem assays: 1829 (Project Summary), 1814 (Primary HTS)]; format: functional
H4 = experiment: Luminescence Cell-Based Dose Response HTS to Identify Activators of 5'UTR Stem-Loop Driven Prion Protein mRNA Translation in H4 Neuroglioblastoma Cells. [Related pubchem assays: 1829 (Project Summary), 1814 (Primary HTS)]; format: functional; conditions: Homo sapiens
Cytochrome P450 2D6 = Cytochrome P450 2D6 (Homo sapiens, UniProt P10635);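 further: CYP2D6 member of a cytochrome P450 panel assay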
cells [8] = format: functional, cell-based
cells [9] = format: functional, cell-based; remark: listed apart in the source
[10] = molecular target: T2, Rac GTPase-activating protein 1 (Homo sapiens, UniProt Q9H0H5); experiment: blockers of MgcRacGAP-driven Rac1 GTP hydrolysis – biochemical, ADP Hunter fluorescence, primary and confirmatory, confirmation (AID 624330); format: functional
T2 sequence (Q9H0H5 whole entry): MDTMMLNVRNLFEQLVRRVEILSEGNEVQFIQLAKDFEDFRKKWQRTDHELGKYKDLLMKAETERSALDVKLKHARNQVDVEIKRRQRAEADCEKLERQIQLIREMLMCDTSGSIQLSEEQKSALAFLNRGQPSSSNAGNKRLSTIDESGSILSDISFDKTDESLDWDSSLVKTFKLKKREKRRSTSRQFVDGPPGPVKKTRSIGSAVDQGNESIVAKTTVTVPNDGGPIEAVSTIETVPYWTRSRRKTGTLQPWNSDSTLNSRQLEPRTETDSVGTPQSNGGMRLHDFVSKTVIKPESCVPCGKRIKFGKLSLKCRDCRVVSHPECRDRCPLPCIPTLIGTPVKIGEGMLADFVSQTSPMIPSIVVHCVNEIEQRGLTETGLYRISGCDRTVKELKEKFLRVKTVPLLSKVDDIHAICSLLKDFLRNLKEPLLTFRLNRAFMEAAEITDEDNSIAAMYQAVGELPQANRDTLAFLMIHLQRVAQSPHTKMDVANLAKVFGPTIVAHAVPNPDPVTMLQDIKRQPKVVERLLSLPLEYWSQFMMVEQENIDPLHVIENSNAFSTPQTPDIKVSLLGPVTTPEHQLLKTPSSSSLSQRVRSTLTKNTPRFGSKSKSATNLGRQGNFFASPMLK

26S proteasome non-ATPase regulatory subunit 14, sequence (O00487 whole entry): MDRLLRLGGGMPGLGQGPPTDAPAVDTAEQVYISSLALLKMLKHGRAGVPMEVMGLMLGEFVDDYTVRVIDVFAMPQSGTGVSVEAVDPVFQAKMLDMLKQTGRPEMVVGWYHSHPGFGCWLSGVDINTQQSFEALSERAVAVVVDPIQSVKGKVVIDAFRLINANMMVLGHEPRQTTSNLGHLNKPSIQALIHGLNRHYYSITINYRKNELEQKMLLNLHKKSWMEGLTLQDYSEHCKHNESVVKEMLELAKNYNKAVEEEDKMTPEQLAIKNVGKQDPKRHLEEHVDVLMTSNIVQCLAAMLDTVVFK
72 kDa type IV collagenase, sequence (P08253 whole entry): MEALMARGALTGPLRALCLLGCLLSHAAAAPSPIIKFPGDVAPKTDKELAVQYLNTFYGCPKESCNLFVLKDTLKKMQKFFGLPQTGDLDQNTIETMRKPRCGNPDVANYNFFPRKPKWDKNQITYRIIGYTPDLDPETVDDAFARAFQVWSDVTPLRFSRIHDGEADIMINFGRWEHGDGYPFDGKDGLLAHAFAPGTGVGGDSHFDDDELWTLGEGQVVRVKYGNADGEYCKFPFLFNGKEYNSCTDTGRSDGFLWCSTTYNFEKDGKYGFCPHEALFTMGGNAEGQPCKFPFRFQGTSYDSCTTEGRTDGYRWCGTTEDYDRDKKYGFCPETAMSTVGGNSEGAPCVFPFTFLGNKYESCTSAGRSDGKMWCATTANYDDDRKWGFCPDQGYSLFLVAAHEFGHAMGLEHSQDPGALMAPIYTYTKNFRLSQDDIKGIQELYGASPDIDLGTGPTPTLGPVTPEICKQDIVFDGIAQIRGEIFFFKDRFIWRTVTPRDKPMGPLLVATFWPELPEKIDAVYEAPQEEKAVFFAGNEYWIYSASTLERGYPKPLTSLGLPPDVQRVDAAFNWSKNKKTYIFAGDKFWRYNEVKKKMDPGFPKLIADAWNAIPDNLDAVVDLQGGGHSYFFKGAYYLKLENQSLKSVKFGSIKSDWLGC
Disintegrin and metalloproteinase domain-containing protein 17, sequence (P78536 whole entry, the tested form may be a part): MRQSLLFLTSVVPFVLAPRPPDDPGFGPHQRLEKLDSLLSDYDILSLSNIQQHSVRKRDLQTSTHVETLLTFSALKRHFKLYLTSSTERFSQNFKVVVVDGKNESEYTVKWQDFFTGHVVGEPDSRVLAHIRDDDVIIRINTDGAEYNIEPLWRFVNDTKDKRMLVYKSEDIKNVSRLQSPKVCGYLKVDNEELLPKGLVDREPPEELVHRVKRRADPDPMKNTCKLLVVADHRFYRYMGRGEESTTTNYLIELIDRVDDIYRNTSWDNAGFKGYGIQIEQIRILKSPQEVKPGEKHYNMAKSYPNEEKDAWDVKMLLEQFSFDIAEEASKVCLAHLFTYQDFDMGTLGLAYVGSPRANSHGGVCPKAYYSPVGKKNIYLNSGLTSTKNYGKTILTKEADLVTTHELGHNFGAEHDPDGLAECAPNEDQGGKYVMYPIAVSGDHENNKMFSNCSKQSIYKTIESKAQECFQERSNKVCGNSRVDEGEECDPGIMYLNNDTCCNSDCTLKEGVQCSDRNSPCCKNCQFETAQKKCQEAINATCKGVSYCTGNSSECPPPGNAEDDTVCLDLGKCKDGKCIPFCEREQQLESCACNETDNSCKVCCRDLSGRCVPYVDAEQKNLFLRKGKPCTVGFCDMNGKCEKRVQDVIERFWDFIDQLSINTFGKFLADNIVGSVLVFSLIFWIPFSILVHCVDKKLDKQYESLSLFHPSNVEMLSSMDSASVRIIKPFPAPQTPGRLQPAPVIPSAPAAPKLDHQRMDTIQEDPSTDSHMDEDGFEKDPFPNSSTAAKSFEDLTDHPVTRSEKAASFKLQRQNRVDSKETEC
Cytochrome P450 2D6, sequence (P10635 whole entry): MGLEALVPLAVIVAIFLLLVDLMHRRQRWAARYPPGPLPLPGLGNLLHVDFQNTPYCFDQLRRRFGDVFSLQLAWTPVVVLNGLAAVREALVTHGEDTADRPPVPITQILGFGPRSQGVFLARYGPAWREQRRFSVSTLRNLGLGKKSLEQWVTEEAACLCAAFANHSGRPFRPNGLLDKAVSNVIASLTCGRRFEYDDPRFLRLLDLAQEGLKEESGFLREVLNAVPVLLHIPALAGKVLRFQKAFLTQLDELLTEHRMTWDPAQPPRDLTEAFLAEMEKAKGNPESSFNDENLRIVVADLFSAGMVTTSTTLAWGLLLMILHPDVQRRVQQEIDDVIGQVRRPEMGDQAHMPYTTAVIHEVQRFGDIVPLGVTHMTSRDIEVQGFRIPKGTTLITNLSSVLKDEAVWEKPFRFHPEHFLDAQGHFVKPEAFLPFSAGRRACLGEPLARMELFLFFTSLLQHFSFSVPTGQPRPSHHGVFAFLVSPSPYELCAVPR

Oc1cccc(/C=N/N(Cc2ccccc2)c2ccccc2)c1
EC50 [1]: 6.42 µM (active)
EC50 (Streptokinase A): > 150 µM (not active)
EC50 (Streptococcus): 7.85 µM (active)
IC50 [2]: > 7.73 µM (active)
IC50 [3]: > 69.5 µM (inactive)

N=C1/C(=C\c2ccc(-c3cccc(Cl)c3)o2)C(=O)N=C2SC=C(c3ccccc3)N12
IC50 [4]: 27.8 µM (active)
IC50 [5]: > 100 µM (inactive)
IC50 (Prothrombin): 52.9 µM (active)

CCN(CC)c1ccc(/C=N/NC(=O)c2cccc(S(=O)(=O)Nc3ccccc3OC)c2)cc1
IC50 [4]: 26.3 µM (active)
IC50 [5]: > 100 µM (inactive)
IC50 (Prothrombin): 33.2 µM (active)

NC(=Nc1cccc2ccccc12)Nc1nc(O)c2c(n1)CCC2
EC50 [6]: > 120 µM (not active)
EC50 [7]: > 120 µM (not active)
EC50 (H4): > 120 µM (not active)
IC50 [4]: 24.3 µM (active)
IC50 [5]: > 100 µM (inactive)
IC50 (Prothrombin): > 100 µM (inactive)
AC50 (Cytochrome P450 2D6): 11.2 µM (inconclusive)

CCOC(=O)c1ccc(N2CN(CCc3ccccc3)CN=C2S)cc1
IC50 (cells [8]): > 29.9 µM (inactive)
EC50 (cells [9]): > 29.9 µM (inactive)

COc1cc(/C=C2/C(=O)NN(c3ccc(Cl)cc3)C2=O)cc(Br)c1O
IC50 [4]: 14.5 µM (active)
IC50 [5]: 54.8 µM (active)
IC50 (Prothrombin): 60.6 µM (active)
IC50 [10]: 103 µM (active)

C#CCN(C[C@@H]1[C@@H](OC(=O)NCc2ccc(OC)c(OC)c2)[C@@H](OC(=O)NCc2ccc(OC)c(OC)c2)Cn2c(=O)n(CCCCCC)c(=O)n21)S(=O)(=O)c1ccc(C)cc1
IC50 [2]: > 69.5 µM (inactive)
IC50 [3]: > 69.5 µM (inactive)
